# According to patent publication EP2966448B1, “METHOD FOR THE PREDICTION OR PROGNOSIS OF THE RESPONSE OF A HUMAN SUBJECT SUFFERING FROM CANCER TO TREATMENT WITH AN ANTAGONIST OF THE NK1 RECEPTOR” (priority 2013, dated 2014):
# Key:
# Type in all cases: cell-based
# [1] = tested on: human primary tumor cells; assay: Inhibition of primary tumor cell cultures vs absence or presence of ERK  protein (Example 3; tumor type per table line); conditions: for Percentage of inhibition of cell cultures: 100 micromolar
# Method: (§1) Cell cultures. […] Briefly, small pieces of the tumors were digested into a hyaluronidase solution (Sigma-Aldrich, USA) at a concentration of 1 mg/ml during 15 minutes at 37°C, and then they were treated with 6 mg/ml of collagenase type IV (Invitrogen) during 2 hours at 37°C. Consecutively, cells were washed, and resuspended in the DMEM culture medium with high concentration of glucose (Dulbecco's Modified Eagle's Medium, Invitrogen) supplemented with 1% of antibiotics-antimycotics (Invitrogen) and with 1% of sodium pyruvate (Invitrogen), and the cells were seeded in culture slides at a concentration of 10.000 cells per square centimeter. When cells reached confluence, the adherent cells were separated using sterile trypsin at 0,5% (Invitrogen) and they were used among passages 3 and 9. For the assays shown next, tumor cells were seeded on slides at a concentration of 25.000 cells per well. A total of 6 wells containing the tumor cells were used as survival control. […] All the cultures were kept during 48 hours and later on recollected for their analysis.
# Consecutively, the cells were placed in cultures in the presence of several antagonists of the NK1 receptor.
# In each case it was determined the presence or absence of the downstream effector in the MAP Kinases ERK pathway.
# To determine the presence of the ERK protein, it was performed a Western Blot technique, using as primary antibody: Phospho-p44/42 MAPK (Erk1/2) (Thr202/Tyr204) (D13.14.4E) XP® Rabbit mAb (4370, Cell Signalling). To determine the presence of the MEK protein, it was performed the Western Blot technique, using as primary antibody Phospho-MEK1/2 (Ser217/221) (9121, Cell Signalling).
# The antibody against NK1 receptor (Table 21) was used at 1/50 concentration. The percentages of inhibition are expressed in percentages of variation in relation to control ± standard deviation.
# [2] = tested on: human primary tumor cells; assay: Inhibition of primary tumor cell cultures vs absence or presence of AKT protein (Example 4; tumor type per table line); conditions: cancer cell cultures showing more presence of AKT, compared; non-peptidic antagonists 100 micromolar, antibody 1/50
# Method: as §1
# Afterwards, the cells were cultured in presence of several antagonists of the NK1 receptor.
# In each case it was determined the presence or absence of the AKT protein effector downstream in the PI3 Kinases pathway.
# To determine the presence of the AKT protein in the different cultures Western Blot technique was performed (following the description in example 1-Western Blot section), but using as primary antibody with reference: Akt (pan) (11E7) Rabbit mAb (4685, Cell Signalling).
# The antibody against NK1 receptor (Table 26) was used at 1/50 concentration. The percentages of inhibition are expressed in percentage of variation in relation to control ± standard deviation.
# [3] = tested on: human primary tumor cells; assay: Inhibition of primary tumor cell cultures vs amplification of the gene encoding the NK1 receptor (Example 6; tumor type per table line); conditions: for Percentage of inhibition of cell cultures: 100 micromolar
# Method: as §1
# The presence or absence of the amplification of the gene encoding for the NK1 receptor was determined, and then the cells were cultured in the presence of several antagonists of the NK1 receptor.
# For each case, the presence or absence of amplification of the gene encoding for the NK1 receptor was determined.
# In order to determine the presence of the amplification (increase in the number of copies) of the gene encoding the NK1 receptor (TAC1R), it was used the comparative genomic hybridization technique (CGH Array). Firstly genomic DNA was extracted from each case. Later, it was performed the marking and hybridization of the DNA of each sample together with DNA of a commercial reference without genomic alterations (from masculine or feminine sex, depending on the gender of the patient from whom the samples were obtained). The Array is Sureprint G3 Human CGH Microarray from the company Agilent was used, with an average separation between probes of 5.3Kb and 4.6Kb for the genes RefSeq. The reading of the microarray was done with the DNA Microarray Scanner G2565CA from Agilent, at a resolution of 3 µm. The analysis of the results was performed with the software Cytogenomics v 2.0.6.0 from Agilent with ADM-2: 6.0; Centralization: ON (Threshold: 6.0, Bin size: 10); Fuzzy zero: ON; Aberration filters: ON (minProbes=5 and minAvgAbsLopRatio= 0,5); Feature Level Filters : ON. The genomic coordinates are coincident with the NCBI36genome (hg18). Cases were distributed in two groups: Group I for those cases without the amplification of the gene encoding the NK1 receptor (locus 2p13.1-p12), and Group II for those cases with amplification of the gene encoding the NK1receptor (locus 2p13.1-p12).
# The antibody against NK1 receptor (Table 36) was used at 1/50 concentration. The percentages of inhibition are expressed in percentages of variation in relation to control ± standard deviation.
compound,measurement,setting,value
Cc1cc(F)ccc1[C@H]1CNCCN1C(=O)N(C)[C@H](C)c1cc(C(F)(F)F)cc(C(F)(F)F)c1 [Vestipitant],Percentage of inhibition of cell cultures,"[1]; Colon carcinoma (Adenocarcinoma), cases without presence of ERK",23 percentage
same,Percentage of inhibition of cell cultures,"[1]; Endometrium carcinoma, cases with presence of ERK",93±3 percentage
same,Percentage of inhibition of cell cultures,"[1]; Endometrium carcinoma, cases without presence of ERK",28±5 percentage
same,Percentage of inhibition of cell cultures,"[1]; Gastric carcinoma (Adenocarcinoma), cases with presence of ERK",95±3 percentage
same,Percentage of inhibition of cell cultures,"[1]; Gastric carcinoma (Adenocarcinoma), cases without presence of ERK",24±4 percentage
same,Percentage of inhibition of cell cultures,"[1]; Glioma (astrocytoma), cases with presence of ERK",95±3 percentage
same,Percentage of inhibition of cell cultures,"[1]; Glioma (astrocytoma), cases without presence of ERK",27±4 percentage
same,Percentage of inhibition of cell cultures,"[1]; Lung carcinoma (non small cell lung carcinoma), cases with presence of ERK",95±5 percentage
same,Percentage of inhibition of cell cultures,"[1]; Lung carcinoma (non small cell lung carcinoma), cases without presence of ERK",26±2 percentage
same,Percentage of inhibition of cell cultures,"[1]; Lung carcinoma (small cell lung carcinoma), cases with presence of ERK",96±6 percentage
same,Percentage of inhibition of cell cultures,"[1]; Lung carcinoma (small cell lung carcinoma), cases without presence of ERK",27±4 percentage
same,Percentage of inhibition of cell cultures,"[1]; Melanoma (Nodular Melanoma), cases with presence of ERK",94±5 percentage
same,Percentage of inhibition of cell cultures,"[1]; Melanoma (Nodular Melanoma), cases without presence of ERK",25±3 percentage
same,Percentage of inhibition of cell cultures,"[1]; Non Hodgkin Lymphoma B (diffuse B cell lymphoma), cases with presence of ERK",96±3 percentage
same,Percentage of inhibition of cell cultures,"[1]; Non Hodgkin Lymphoma B (diffuse B cell lymphoma), cases without presence of ERK",24±4 percentage
same,Percentage of inhibition of cell cultures,"[1]; Non Hodgkin Lymphoma T (diffuse T cell lymphoma), cases with presence of ERK",92±4 percentage
same,Percentage of inhibition of cell cultures,"[1]; Non Hodgkin Lymphoma T (diffuse T cell lymphoma), cases without presence of ERK",25±2 percentage
same,Percentage of inhibition of cell cultures,"[1]; Ovarian carcinoma (Adenocarcinoma), cases with presence of ERK",95±5 percentage
same,Percentage of inhibition of cell cultures,"[1]; Ovarian carcinoma (Adenocarcinoma), cases without presence of ERK",24±2 percentage
same,Percentage of inhibition of cell cultures,"[1]; Pancreatic carcinoma (Adenocarcinoma), cases with presence of ERK",93±4 percentage
same,Percentage of inhibition of cell cultures,"[1]; Pancreatic carcinoma (Adenocarcinoma), cases without presence of ERK",24±34 percentage
same,Percentage of inhibition of cell cultures,"[1]; Prostate carcinoma, cases with presence of ERK",94±4 percentage
same,Percentage of inhibition of cell cultures,"[1]; Prostate carcinoma, cases without presence of ERK",22±3 percentage
same,Percentage of inhibition of cell cultures,"[1]; Renal cell carcinoma (clear cell renal cell carcinoma), cases with presence of ERK",92±2 percentage
same,Percentage of inhibition of cell cultures,"[1]; Renal cell carcinoma (clear cell renal cell carcinoma), cases without presence of ERK",25±2 percentage
same,Percentage of inhibition of cell cultures,"[1]; Thyroid carcinoma (follicular carcinoma), cases with presence of ERK",94±4 percentage
same,Percentage of inhibition of cell cultures,"[1]; Thyroid carcinoma (follicular carcinoma), cases without presence of ERK",25±3 percentage
same,Percentage of inhibition of cell cultures,"[1]; Thyroid carcinoma (papillary carcinoma), cases with presence of ERK",96±3 percentage
same,Percentage of inhibition of cell cultures,"[1]; Thyroid carcinoma (papillary carcinoma), cases without presence of ERK",26±4 percentage
same,Percentage of inhibition of cell cultures,"[1]; Undifferentiated Pleomorphic Sarcoma (malignant fibrous histiocytoma grade 3), cases with presence of ERK",93±4 percentage
same,Percentage of inhibition of cell cultures,"[1]; Undifferentiated Pleomorphic Sarcoma (malignant fibrous histiocytoma grade 3), cases without presence of ERK",26±2 percentage
same,Percentage of inhibition of cell cultures,"[1]; Urinary bladder carcinoma (transitional cell carcinoma), cases with presence of ERK",97±5 percentage
same,Percentage of inhibition of cell cultures,"[1]; Urinary bladder carcinoma (transitional cell carcinoma), cases without presence of ERK",24±5 percentage
same,inhibition of cell proliferation,"[1]; cancer cell cultures that show more presence of ERK, compared, non-peptidic antagonists 100 micromolar, antibody 1/50",higher inhibition
same,inhibition of cell proliferation,[2],higher inhibition
same,Percentage of inhibition of cell cultures,"[3]; Breast carcinoma (ductal adenocarcinoma), Cases with amplification of the gene that encodes for the NK1 receptor",94±6 percentage
same,Percentage of inhibition of cell cultures,"[3]; Breast carcinoma (ductal adenocarcinoma), Cases without amplification of the gene that encodes for the NK1 receptor",24±3 percentage
same,Percentage of inhibition of cell cultures,"[3]; Burkitt Lymphoma, Cases with amplification of the gene that encodes for the NK1 receptor",97±5 percentage
same,Percentage of inhibition of cell cultures,"[3]; Burkitt Lymphoma, Cases without amplification of the gene that encodes for the NK1 receptor",23±5 percentage
same,Percentage of inhibition of cell cultures,"[3]; Carcinoma of the uterine cervix (Squamous cell carcinoma), Cases with amplification of the gene that encodes for the NK1 receptor",94±6 percentage
same,Percentage of inhibition of cell cultures,"[3]; Carcinoma of the uterine cervix (Squamous cell carcinoma), Cases without amplification of the gene that encodes for the NK1 receptor",26±6 percentage
same,Percentage of inhibition of cell cultures,"[3]; Colon carcinoma (Adenocarcinoma), Cases with amplification of the gene that encodes for the NK1 receptor",93±3 percentage
same,Percentage of inhibition of cell cultures,"[3]; Colon carcinoma (Adenocarcinoma), Cases without amplification of the gene that encodes for the NK1 receptor",24±4 percentage
same,Percentage of inhibition of cell cultures,"[3]; Endometrium carcinoma, Cases with amplification of the gene that encodes for the NK1 receptor",95±5 percentage
same,Percentage of inhibition of cell cultures,"[3]; Endometrium carcinoma, Cases without amplification of the gene that encodes for the NK1 receptor",23±5 percentage
same,Percentage of inhibition of cell cultures,"[3]; Gastric carcinoma (Adenocarcinoma), Cases with amplification of the gene that encodes for the NK1 receptor",94±4 percentage
same,Percentage of inhibition of cell cultures,"[3]; Gastric carcinoma (Adenocarcinoma), Cases without amplification of the gene that encodes for the NK1 receptor",25±5 percentage
same,Percentage of inhibition of cell cultures,"[3]; Glioma (astrocytoma), Cases with amplification of the gene that encodes for the NK1 receptor",94±7 percentage
same,Percentage of inhibition of cell cultures,"[3]; Glioma (astrocytoma), Cases without amplification of the gene that encodes for the NK1 receptor",26±5 percentage
same,Percentage of inhibition of cell cultures,"[3]; Lung carcinoma (non small cell lung carcinoma), Cases with amplification of the gene that encodes for the NK1 receptor",93±5 percentage
same,Percentage of inhibition of cell cultures,"[3]; Lung carcinoma (non small cell lung carcinoma), Cases without amplification of the gene that encodes for the NK1 receptor",24±4 percentage
same,Percentage of inhibition of cell cultures,"[3]; Lung carcinoma (small cell lung carcinoma), Cases with amplification of the gene that encodes for the NK1 receptor",94±4 percentage
same,Percentage of inhibition of cell cultures,"[3]; Lung carcinoma (small cell lung carcinoma), Cases without amplification of the gene that encodes for the NK1 receptor",25±3 percentage
same,Percentage of inhibition of cell cultures,"[3]; Melanoma (Nodular Melanoma), Cases with amplification of the gene that encodes for the NK1 receptor",96±5 percentage
same,Percentage of inhibition of cell cultures,"[3]; Melanoma (Nodular Melanoma), Cases without amplification of the gene that encodes for the NK1 receptor",24±6 percentage
same,Percentage of inhibition of cell cultures,"[3]; Non Hodgkin Lymphoma B (diffuse B cell lymphoma), Cases with amplification of the gene that encodes for the NK1 receptor",94±6 percentage
same,Percentage of inhibition of cell cultures,"[3]; Non Hodgkin Lymphoma B (diffuse B cell lymphoma), Cases without amplification of the gene that encodes for the NK1 receptor",27±5 percentage
same,Percentage of inhibition of cell cultures,"[3]; Non Hodgkin Lymphoma T (diffuse T cell lymphoma), Cases with amplification of the gene that encodes for the NK1 receptor",95±4 percentage
same,Percentage of inhibition of cell cultures,"[3]; Non Hodgkin Lymphoma T (diffuse T cell lymphoma), Cases without amplification of the gene that encodes for the NK1 receptor",29±3 percentage
same,Percentage of inhibition of cell cultures,"[3]; Ovarian carcinoma(Adenocarcinoma), Cases with amplification of the gene that encodes for the NK1 receptor",96±5 percentage
same,Percentage of inhibition of cell cultures,"[3]; Ovarian carcinoma(Adenocarcinoma), Cases without amplification of the gene that encodes for the NK1 receptor",25±4 percentage
same,Percentage of inhibition of cell cultures,"[3]; Pancreatic carcinoma (Adenocarcinoma), Cases with amplification of the gene that encodes for the NK1 receptor",93±4 percentage
same,Percentage of inhibition of cell cultures,"[3]; Pancreatic carcinoma (Adenocarcinoma), Cases without amplification of the gene that encodes for the NK1 receptor",25±3 percentage
same,Percentage of inhibition of cell cultures,"[3]; Prostate carcinoma, Cases with amplification of the gene that encodes for the NK1 receptor",96±6 percentage
same,Percentage of inhibition of cell cultures,"[3]; Prostate carcinoma, Cases without amplification of the gene that encodes for the NK1 receptor",25±6 percentage
same,Percentage of inhibition of cell cultures,"[3]; Renal cell carcinoma (clear cell renal cell carcinoma), Cases with amplification of the gene that encodes for the NK1 receptor",94±5 percentage
same,Percentage of inhibition of cell cultures,"[3]; Renal cell carcinoma (clear cell renal cell carcinoma), Cases without amplification of the gene that encodes for the NK1 receptor",27±4 percentage
same,Percentage of inhibition of cell cultures,"[3]; Thyroid carcinoma (follicular carcinoma), Cases with amplification of the gene that encodes for the NK1 receptor",94±6 percentage
same,Percentage of inhibition of cell cultures,"[3]; Thyroid carcinoma (follicular carcinoma), Cases without amplification of the gene that encodes for the NK1 receptor",25±5 percentage
same,Percentage of inhibition of cell cultures,"[3]; Thyroid carcinoma (papillary carcinoma), Cases with amplification of the gene that encodes for the NK1 receptor",97±4 percentage
same,Percentage of inhibition of cell cultures,"[3]; Thyroid carcinoma (papillary carcinoma), Cases without amplification of the gene that encodes for the NK1 receptor",26±3 percentage
same,Percentage of inhibition of cell cultures,"[3]; Undifferentiated Pleomorphic Sarcoma (malignant fibrous histiocytoma grade 3), Cases with amplification of the gene that encodes for the NK1 receptor",95±7 percentage
same,Percentage of inhibition of cell cultures,"[3]; Undifferentiated Pleomorphic Sarcoma (malignant fibrous histiocytoma grade 3), Cases without amplification of the gene that encodes for the NK1 receptor",27±4 percentage
same,Percentage of inhibition of cell cultures,"[3]; Urinary bladder carcinoma (transitional cell carcinoma), Cases with amplification of the gene that encodes for the NK1 receptor",95±5 percentage
same,Percentage of inhibition of cell cultures,"[3]; Urinary bladder carcinoma (transitional cell carcinoma), Cases without amplification of the gene that encodes for the NK1 receptor",24±5 percentage
same,inhibition of cell proliferation,"[3]; cancer cell cultures which show amplification in the genomic region encoding the NK1 receptor, compared, non-peptidic antagonists 100 micromolar, antibody 1/50",higher inhibition
